This note sets out measurements from patent US20250262201A1, “COMPOUNDS AND METHODS USEFUL FOR STABILIZING PHENYLALANINE HYDROXYLASE MUTATIONS” (Agios Pharmaceuticals, Inc., priority 2022, published 2025).

The term AC50 denotes the concentration at which the activity in the assay is half-maximal.

In the assay the target is T1, human PAH with the R408W mutation (Homo sapiens, UniProt P00439, R408W).
T1 construct: expressed in transfected cells
T1 sequence (P00439 1-452 R408W): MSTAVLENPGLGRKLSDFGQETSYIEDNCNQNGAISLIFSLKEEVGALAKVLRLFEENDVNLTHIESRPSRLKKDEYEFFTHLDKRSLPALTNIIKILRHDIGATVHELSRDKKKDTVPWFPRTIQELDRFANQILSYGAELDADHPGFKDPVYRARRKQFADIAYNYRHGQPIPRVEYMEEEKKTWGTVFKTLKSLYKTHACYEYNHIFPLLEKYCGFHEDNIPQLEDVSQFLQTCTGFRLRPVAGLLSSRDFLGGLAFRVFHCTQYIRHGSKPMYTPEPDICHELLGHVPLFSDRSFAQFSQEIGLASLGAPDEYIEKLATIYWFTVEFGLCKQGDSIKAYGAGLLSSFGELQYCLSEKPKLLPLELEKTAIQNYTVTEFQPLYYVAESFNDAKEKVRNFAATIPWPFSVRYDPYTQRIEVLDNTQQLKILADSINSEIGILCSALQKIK
Description: Cell Based Phenylalanine Flux Assay. The conditions noted are these: A375 cells expressing human R408W PAH; 24 hrs compound incubation; 13C-Tyrosine by LC-MS; average where tested multiple times; read-out: AC50.
For `Cc1nc(C(C)(C)F)oc1C(=O)N1CCc2[nH]cnc2C1c1ccc2ccccc2n1` (stereo in doubt) [Example 22, (R)-(2-(2-fluoropropan-2-yl)-4-methyloxazol-5-yl)(4-(quinolin-2-yl)-6,7-dihydro-1H-imidazo[4,5-c]pyridin-5(4H)-yl)methanone], the half-maximal activity concentration (AC50) was below 500 nM.

For `O=C(c1nnc(-c2c(F)cccc2F)o1)N1CCc2[nH]cnc2C1c1ccc2ccccc2n1` (stereo in doubt) [Example 23, (R)-(5-(2,6-difluorophenyl)-1,3,4-oxadiazol-2-yl)(4-(quinolin-2-yl)-6,7-dihydro-1H-imidazo[4,5-c]pyridin-5(4H)-yl)methanone], the AC50 was below 500 nM. With `Cc1nc(-c2cnn(C)c2)oc1C(=O)N1CCc2[nH]cnc2C1c1ccc2ccccc2n1` (stereo in doubt) [Example 25, (S)-(4-methyl-2-(1-methyl-1H-pyrazol-4-yl)oxazol-5-yl)(4-(quinolin-2-yl)-6,7-dihydro-1H-imidazo[4,5-c]pyridin-5(4H)-yl)methanone] the figure was above 5000 nM; with `CC(C)(O)c1nnc(C(=O)N2CCc3[nH]cnc3C2c2ccc3ccccc3n2)o1` (stereo in doubt) [Example 27, (S)-(5-(2-hydroxypropan-2-yl)-1,3,4-oxadiazol-2-yl)(4-(quinolin-2-yl)-6,7-dihydro-1H-imidazo[4,5-c]pyridin-5(4H)-yl)methanone], above 5000 nM; with `CC(C)(O)c1nnc(C(=O)N2CCc3[nH]cnc3C2c2ccc3ccccc3n2)o1` (stereo in doubt) [Example 28, (R)-(5-(2-hydroxypropan-2-yl)-1,3,4-oxadiazol-2-yl)(4-(quinolin-2-yl)-6,7-dihydro-1H-imidazo[4,5-c]pyridin-5(4H)-yl)methanone], 1000 to 5000 nM. On to `FC(F)(F)c1cnc(N2CCc3[nH]cnc3C2c2ccc3ccccc3n2)nc1` (stereo in doubt) [Example 29, (R)-2-(5-(5-(trifluoromethyl)pyrimidin-2-yl)-4,5,6,7-tetrahydro-1H-imidazo[4,5-c]pyridin-4-yl)quinoline], for which the AC50 was below 500 nM.

As to `FC(F)(F)c1cnc(N2CCc3[nH]cnc3C2c2ccc3ccccc3n2)nc1` (stereo in doubt) [Example 30, (S)-2-(5-(5-(trifluoromethyl)pyrimidin-2-yl)-4,5,6,7-tetrahydro-1H-imidazo[4,5-c]pyridin-4-yl)quinoline], the half-maximal activity concentration (AC50) is above 5000 nM. With `Cc1nc(-c2ccccn2)oc1C(=O)N1CCc2[nH]cnc2C1c1ccc2ccccc2n1` (stereo in doubt) [Example 31, (R)-(4-methyl-2-(pyridin-2-yl)oxazol-5-yl)(4-(quinolin-2-yl)-6,7-dihydro-1H-imidazo[4,5-c]pyridin-5(4H)-yl)methanone] the figure was 500 to 1000 nM. In the case of `Cc1nc(-c2ccccn2)oc1C(=O)N1CCc2[nH]cnc2C1c1ccc2ccccc2n1` (stereo in doubt) [Example 32, (S)-(4-methyl-2-(pyridin-2-yl)oxazol-5-yl)(4-(quinolin-2-yl)-6,7-dihydro-1H-imidazo[4,5-c]pyridin-5(4H)-yl)methanone] it was above 5000 nM. With `O=C(c1nnc(-c2ccc(F)cn2)o1)N1CCc2[nH]cnc2C1c1ccc2ccccc2n1` (stereo in doubt) [Example 33, (R)-(5-(5-fluoropyridin-2-yl)-1,3,4-oxadiazol-2-yl)(4-(quinolin-2-yl)-6,7-dihydro-1H-imidazo[4,5-c]pyridin-5(4H)-yl)methanone] the figure was 1000 to 5000 nM; with `O=C(c1nnc(-c2ccc(F)cn2)o1)N1CCc2[nH]cnc2C1c1ccc2ccccc2n1` (stereo in doubt) [Example 34, (S)-(5-(5-fluoropyridin-2-yl)-1,3,4-oxadiazol-2-yl)(4-(quinolin-2-yl)-6,7-dihydro-1H-imidazo[4,5-c]pyridin-5(4H)-yl)methanone], above 5000 nM. Turning to `Cc1nc(C2CC2)oc1C(=O)N1CCc2[nH]cnc2C1c1ccc2ccccc2n1` (stereo in doubt) [Example 35, (R)-(2-cyclopropyl-4-methyloxazol-5-yl)(4-(quinolin-2-yl)-6,7-dihydro-1H-imidazo[4,5-c]pyridin-5(4H)-yl)methanone], the half-maximal activity concentration (AC50) was below 500 nM. With `Cc1nc(C2CC2)oc1C(=O)N1CCc2[nH]cnc2C1c1ccc2ccccc2n1` (stereo in doubt) [Example 36, (S)-(2-cyclopropyl-4-methyloxazol-5-yl)(4-(quinolin-2-yl)-6,7-dihydro-1H-imidazo[4,5-c]pyridin-5(4H)-yl)methanone] the figure was above 5000 nM; with `O=C(c1ocnc1C(F)(F)F)N1CCc2[nH]cnc2C1c1ccc2ccccc2n1` (stereo in doubt) [Example 37, (R)-(4-(quinolin-2-yl)-6,7-dihydro-1H-imidazo[4,5-c]pyridin-5(4H)-yl)(4-(trifluoromethyl)oxazol-5-yl)methanone], below 500 nM. With `O=C(c1ocnc1C(F)(F)F)N1CCc2[nH]cnc2C1c1ccc2ccccc2n1` (stereo in doubt) [Example 38, (S)-(4-(quinolin-2-yl)-6,7-dihydro-1H-imidazo[4,5-c]pyridin-5(4H)-yl)(4-(trifluoromethyl)oxazol-5-yl)methanone] the figure was 1000 to 5000 nM.

`CC(F)(F)c1ncc(C(=O)N2CCc3[nH]cnc3C2c2ccc3ccccc3n2)s1` (stereo in doubt) [Example 39, (R)-(2-(1,1-difluoroethyl)thiazol-5-yl)(4-(quinolin-2-yl)-6,7-dihydro-1H-imidazo[4,5-c]pyridin-5(4H)-yl)methanone]: the AC50 was in the range of 500 to 1000 nM.

As for `CC(F)(F)c1ncc(C(=O)N2CCc3[nH]cnc3C2c2ccc3ccccc3n2)s1` (stereo in doubt) [Example 40, (S)-(2-(1,1-difluoroethyl)thiazol-5-yl)(4-(quinolin-2-yl)-6,7-dihydro-1H-imidazo[4,5-c]pyridin-5(4H)-yl)methanone], the half-maximal activity concentration (AC50) fell in the range of 1000 to 5000 nM. `O=C(CC1CC1)N1CCc2[nH]cnc2C1c1ccc2ccccc2n1` (stereo in doubt) [Example 41, (R)-2-cyclopropyl-1-(4-(quinolin-2-yl)-6,7-dihydro-1H-imidazo[4,5-c]pyridin-5(4H)-yl)ethanone]: the AC50 is below 500 nM.

For the compound `O=C(CC1CC1)N1CCc2[nH]cnc2C1c1ccc2ccccc2n1` (stereo in doubt) [Example 42, (S)-2-cyclopropyl-1-(4-(quinolin-2-yl)-6,7-dihydro-1H-imidazo[4,5-c]pyridin-5(4H)-yl)ethanone], the half-maximal activity concentration (AC50) lay in the range of 1000 to 5000 nM. With `O=C(c1oc(-c2ccccn2)nc1C1CC1)N1CCc2[nH]cnc2C1c1ccc2ccccc2n1` (stereo in doubt) [Example 43, (R)-(4-cyclopropyl-2-(pyridin-2-yl)oxazol-5-yl)(4-(quinolin-2-yl)-6,7-dihydro-1H-imidazo[4,5-c]pyridin-5(4H)-yl)methanone] the figure was below 500 nM; with `O=C(c1oc(-c2ccccn2)nc1C1CC1)N1CCc2[nH]cnc2C1c1ccc2ccccc2n1` (stereo in doubt) [Example 44, (S)-(4-cyclopropyl-2-(pyridin-2-yl)oxazol-5-yl)(4-(quinolin-2-yl)-6,7-dihydro-1H-imidazo[4,5-c]pyridin-5(4H)-yl)methanone], 1000 to 5000 nM; with `O=C(c1nnc(-c2ccccn2)o1)N1CCc2[nH]cnc2C1c1ccc2ccccc2n1` (stereo in doubt) [Example 45, (R)-(5-(pyridin-2-yl)-1,3,4-oxadiazol-2-yl)(4-(quinolin-2-yl)-6,7-dihydro-1H-imidazo[4,5-c]pyridin-5(4H)-yl)methanone], below 500 nM. In the case of `O=C(c1nnc(-c2ccccn2)o1)N1CCc2[nH]cnc2C1c1ccc2ccccc2n1` (stereo in doubt) [Example 46, (S)-(5-(pyridin-2-yl)-1,3,4-oxadiazol-2-yl)(4-(quinolin-2-yl)-6,7-dihydro-1H-imidazo[4,5-c]pyridin-5(4H)-yl)methanone] it was above 5000 nM; in that of `Cn1cc(-c2nnc(C(=O)N3CCc4[nH]cnc4C3c3ccc4ccccc4n3)o2)cn1` (stereo in doubt) [Example 47, (R)-(5-(1-methyl-1H-pyrazol-4-yl)-1,3,4-oxadiazol-2-yl)(4-(quinolin-2-yl)-6,7-dihydro-1H-imidazo[4,5-c]pyridin-5(4H)-yl)methanone], 500 to 1000 nM. In the case of `Cn1cc(-c2nnc(C(=O)N3CCc4[nH]cnc4C3c3ccc4ccccc4n3)o2)cn1` (stereo in doubt) [Example 48, (S)-(5-(1-methyl-1H-pyrazol-4-yl)-1,3,4-oxadiazol-2-yl)(4-(quinolin-2-yl)-6,7-dihydro-1H-imidazo[4,5-c]pyridin-5(4H)-yl)methanone] it was above 5000 nM; in that of `O=C([C@H]1CC1(F)F)N1CCc2[nH]cnc2[C@@H]1c1ccc2ccccc2n1` (stereo in doubt) [Example 49, ((R)-2,2-difluorocyclopropyl)((R)-4-(quinolin-2-yl)-6,7-dihydro-1H-imidazo[4,5-c]pyridin-5(4H)-yl)methanone], below 500 nM. On to `O=C([C@@H]1CC1(F)F)N1CCc2[nH]cnc2C1c1ccc2ccccc2n1` (stereo in doubt) [Example 50, ((S)-2,2-difluorocyclopropyl)((S)-4-(quinolin-2-yl)-6,7-dihydro-1H-imidazo[4,5-c]pyridin-5(4H)-yl)methanone], for which the half-maximal activity concentration (AC50) was above 5000 nM.

On to `O=C(c1ocnc1C(F)F)N1CCc2nc[nH]c2C1c1ccc2ccccc2n1` (stereo in doubt) [Example 51, (R)-(4-(difluoromethyl)oxazol-5-yl)(4-(quinolin-2-yl)-6,7-dihydro-3H-imidazo[4,5-c]pyridin-5(4H)-yl)methanone], for which the concentration at half-maximal activity (AC50) is below 500 nM.
